# What was measured:
# [1] = test system: MV-4-11 (Acute Myeloid Leukemia); assay: combination Emax (second highest fraction inhibited in the dose matrix, 72 h); higher = more inhibition; extreme values may be limits of the assay
# Method in brief: (§1)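 Cell lines in DMEM/F12 or RPMI with 10% FBS were plated in 1536-well plates, held 24 hours at 37°C, 5% CO2, then given two-drug dose matrices for 72 hours (DMSO typically 0.2%). Viability was read by CellTiter-Glo 2.0 luminescence and scaled as inhibition from 0 (vehicle wells) to 1 (blank wells). Combination Emax is the second-highest inhibition in the matrix; Bliss excess is observed combination effect minus expected EA + EB − EA·EB, EA and EB being single-agent effects.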
# [2] = test system: Ca-Ski (Cervical Carcinoma); assay: as above
# Method in brief: as §1
# [3] = test system: SNU-387 (Hepatocellular Carcinoma); assay: as above
# Method in brief: as §1
# [4] = test system: ML-2 (Acute Myeloid Leukemia); assay: as above
# Method in brief: as §1
# COLO-679 (Melanoma) = assay: as above
# Method in brief: as §1
# [5] = test system: HAL-01 (B-Lymphoblastic Leukemia); assay: as above
# Method in brief: as §1
# [6] = test system: OE33 (Esophageal Adenocarcinoma); assay: as above
# Method in brief: as §1
# [7] = test system: SW982 (Other Solid Carcinomas); assay: as above
# Method in brief: as §1
# [8] = test system: SK-LU-1 (Lung Adenocarcinoma); assay: Bliss excess, mean over the matrix (fraction); higher = more synergy
# Method in brief: as §1
# [9] = test system: NCI-H1838 (Lung Adenocarcinoma); assay: as above
# Method in brief: as §1
# [10] = test system: HCC1500 (Breast Carcinoma); assay: as above
# Method in brief: as §1
# [11] = test system: LC-1-sq (Squamous Cell Lung Carcinoma); assay: as above
# Method in brief: as §1
# EW-1 (Ewing's Sarcoma) = assay: as above
# Method in brief: as §1
# [12] = test system: OACM5-1 (Esophageal Adenocarcinoma); assay: as above
# Method in brief: as §1
# [13] = test system: KOPN-8 (B-Lymphoblastic Leukemia); assay: as above
# Method in brief: as §1
# [14] = test system: G-401 (Other Solid Carcinomas); assay: as above
# Method in brief: as §1
# [15] = test system: NCI-H650 (Lung Adenocarcinoma); assay: as above
# Method in brief: as §1
# [16] = test system: EJM (Plasma Cell Myeloma); assay: as above
# Method in brief: as §1
# [17] = test system: HCC1937 (Breast Carcinoma); assay: as above
# Method in brief: as §1
# [18] = test system: COLO-668 (Small Cell Lung Carcinoma); assay: combination Emax (second highest fraction inhibited in the dose matrix, 72 h); higher = more inhibition; extreme values may be limits of the assay
# Method in brief: as §1
# 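Wherever Bliss excess, mean over the matrix is given: after 72 h of two-drug dosing.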
compound,measurement,setting,value
"CN(CCO)CC[C@H](CSc1ccccc1)Nc1ccc(S(=O)(=O)NC(=O)c2ccc(N3CCC([C@@H](O)c4ccccc4-c4ccc(Cl)cc4)CC3)cc2)cc1S(=O)(=O)C(F)(F)F [AZD4320] + C1CN(CCC1(C(=O)N[C@@H](CCO)C2=CC=C(C=C2)Cl)N)C3=NC=NC4=C3C=CN4 [Capivasertib] (first compound max 1 µM, 7x7, partner max 3 µM)",combination Emax,[1],1
same,combination Emax,[2],0.766
same,combination Emax,[3],0.213
same,combination Emax,[4],0.984
same,combination Emax,COLO-679 (Melanoma),0.0975
same,combination Emax,[5],0.761
same,combination Emax,[6],0.0577
same,combination Emax,[7],0.278
same,Bliss excess,[8],-0.0558
same,Bliss excess,[9],-0.0392
same,Bliss excess,[10],-0.0178
same,Bliss excess,[11],-0.02
same,Bliss excess,EW-1 (Ewing's Sarcoma),-0.0009
same,Bliss excess,[12],-0.0272
same,Bliss excess,[13],-0.0266
same,Bliss excess,[14],-0.0591
same,Bliss excess,[15],-0.0252
same,Bliss excess,[16],-0.0272
same,Bliss excess,[17],-0.0881
"CN(CCO)CC[C@H](CSc1ccccc1)Nc1ccc(S(=O)(=O)NC(=O)c2ccc(N3CCC([C@@H](O)c4ccccc4-c4ccc(Cl)cc4)CC3)cc2)cc1S(=O)(=O)C(F)(F)F [AZD4320] + CCN(CCO)CCCOc1ccc2c(Nc3cc(CC(=O)Nc4cccc(F)c4)[nH]n3)ncnc2c1 [AZD2811] (first compound max 1 µM, 7x7, partner max 1 µM)",combination Emax,[1],1
same,combination Emax,[2],0.907
same,combination Emax,[18],0.915
same,combination Emax,[3],0.227
same,combination Emax,[4],1
same,combination Emax,COLO-679 (Melanoma),0.275
same,combination Emax,[5],0.835
same,combination Emax,[6],0.0773
same,combination Emax,[7],0.814
same,Bliss excess,[8],-0.0232
same,Bliss excess,[9],0.0003
same,Bliss excess,[10],0.0758
same,Bliss excess,[11],0.0294
same,Bliss excess,EW-1 (Ewing's Sarcoma),0.146
same,Bliss excess,[12],0.0473
same,Bliss excess,[13],-0.0249
same,Bliss excess,[14],0.0082
same,Bliss excess,[15],-0.0457
same,Bliss excess,[16],0.0454
same,Bliss excess,[17],-0.0513
"CN(CCO)CC[C@H](CSc1ccccc1)Nc1ccc(S(=O)(=O)NC(=O)c2ccc(N3CCC([C@@H](O)c4ccccc4-c4ccc(Cl)cc4)CC3)cc2)cc1S(=O)(=O)C(F)(F)F [AZD4320] + C[C@@H]1COCCN1C2=NC(=NC(=C2)C3(CC3)[S@](=N)(=O)C)C4=C5C=CNC5=NC=C4 [AZD6738] (first compound max 1 µM, 7x7, partner max 10 µM)",combination Emax,[1],1
same,combination Emax,[2],0.773
same,combination Emax,[18],0.983
same,combination Emax,[3],0.541
same,combination Emax,[4],1
same,combination Emax,COLO-679 (Melanoma),0.771
same,combination Emax,[5],1
same,combination Emax,[6],0.843
same,combination Emax,[7],0.886
same,Bliss excess,[8],-0.0884
same,Bliss excess,[9],-0.0445
same,Bliss excess,[10],0.0444
same,Bliss excess,[11],0.0261
same,Bliss excess,EW-1 (Ewing's Sarcoma),0.0574
same,Bliss excess,[12],0.0144
same,Bliss excess,[13],-0.0246
same,Bliss excess,[14],-0.0287
same,Bliss excess,[15],-0.0234
same,Bliss excess,[16],0.0488
same,Bliss excess,[17],-0.0241
"CN(CCO)CC[C@H](CSc1ccccc1)Nc1ccc(S(=O)(=O)NC(=O)c2ccc(N3CCC([C@@H](O)c4ccccc4-c4ccc(Cl)cc4)CC3)cc2)cc1S(=O)(=O)C(F)(F)F [AZD4320] + Cc1cc2ncnn2cc1Nc1ncc2c(n1)n(C1CCOCC1)c(=O)n2C [AZD7648] (first compound max 1 µM, 7x7, partner max 10 µM)",combination Emax,[1],1
same,combination Emax,[2],0.208
same,combination Emax,[18],0.867
same,combination Emax,[3],0.178
same,combination Emax,[4],0.966
same,combination Emax,COLO-679 (Melanoma),0.142
same,combination Emax,[5],0.882
same,combination Emax,[6],0.222
same,combination Emax,[7],0.371
same,Bliss excess,[8],0.0207
same,Bliss excess,[9],-0.0291
same,Bliss excess,[10],-0.0027
same,Bliss excess,[11],-0.0093
same,Bliss excess,EW-1 (Ewing's Sarcoma),0.0033
same,Bliss excess,[12],-0.0545
same,Bliss excess,[13],-0.0243
same,Bliss excess,[14],-0.0392
same,Bliss excess,[15],-0.021
same,Bliss excess,[16],0.0347
same,Bliss excess,[17],-0.0352
"Cc1c2c(nn1C)CSCc1cc(n(C)n1)CSc1cc(c3ccccc3c1)OCCCc1c(C(=O)O)n(C)c3c-2c(Cl)ccc13 [AZD5991] + Cn1cnc2c(F)c(Nc3ccc(Br)cc3Cl)c(C(=O)NOCCO)cc21 [Selumetinib] (first compound max 1 µM, 7x7, partner max 3 µM)",combination Emax,[1],1
same,combination Emax,[2],0.633
same,combination Emax,[18],0.666
same,combination Emax,[3],0.619
same,combination Emax,[4],1
same,combination Emax,COLO-679 (Melanoma),0.832
same,combination Emax,[5],0.624
same,combination Emax,[6],0.19
same,combination Emax,[7],0.377
same,Bliss excess,[8],-0.0225
same,Bliss excess,[9],0.003
same,Bliss excess,[10],0.0093
same,Bliss excess,[11],0.0393
same,Bliss excess,EW-1 (Ewing's Sarcoma),-0.0044
same,Bliss excess,[12],0.0491
same,Bliss excess,[13],0.0258
same,Bliss excess,[14],-0.0039
same,Bliss excess,[15],0.0222
same,Bliss excess,[16],0.0088
same,Bliss excess,[17],0.0328
"Cc1cc2ncnn2cc1Nc1ncc2c(n1)n(C1CCOCC1)c(=O)n2C [AZD7648] + O=C(c1cc(Cc2n[nH]c(=O)c3ccccc23)ccc1F)N1CCN(C(=O)C2CC2)CC1 [Olaparib] (first compound max 10 µM, 7x7, partner max 10 µM)",combination Emax,[1],0.446
same,combination Emax,[2],0.142
same,combination Emax,[18],0.144
same,combination Emax,[3],0.259
same,combination Emax,[4],0.419
same,combination Emax,COLO-679 (Melanoma),0.128
same,combination Emax,[5],0.472
same,combination Emax,[6],0.218
same,combination Emax,[7],0.503
same,Bliss excess,[8],-0.066
same,Bliss excess,[9],-0.0808
same,Bliss excess,[10],-0.0234
same,Bliss excess,[11],-0.042
same,Bliss excess,EW-1 (Ewing's Sarcoma),-0.0021
same,Bliss excess,[12],-0.0505
same,Bliss excess,[13],0.0196
same,Bliss excess,[14],-0.0308
same,Bliss excess,[15],-0.0247
same,Bliss excess,[16],-0.0369
same,Bliss excess,[17],-0.0498
"Cc1nc(Nc2ncc(C(=O)Nc3c(C)cccc3Cl)s2)cc(N2CCN(CCO)CC2)n1 [Dasatinib] + CC(=O)Nc1cccc(-n2c(=O)n(C3CC3)c(=O)c3c(Nc4ccc(I)cc4F)n(C)c(=O)c(C)c32)c1 [Trametinib] (first compound max 2 µM, 7x7, partner max 1 µM)",combination Emax,[1],0.791
same,combination Emax,[2],0.774
same,combination Emax,[18],0.458
same,combination Emax,[3],0.511
same,combination Emax,[4],0.799
same,combination Emax,COLO-679 (Melanoma),0.757
same,combination Emax,[5],0.526
same,combination Emax,[6],0.641
same,combination Emax,[7],0.936
same,Bliss excess,[8],-0.0889
same,Bliss excess,[9],-0.0793
same,Bliss excess,[10],-0.0599
same,Bliss excess,[11],-0.0577
same,Bliss excess,EW-1 (Ewing's Sarcoma),-0.0586
same,Bliss excess,[12],-0.0912
same,Bliss excess,[13],-0.188
same,Bliss excess,[14],-0.0089
same,Bliss excess,[15],0.121
same,Bliss excess,[16],-0.0342
same,Bliss excess,[17],-0.0262
"COc1cc2ncnc(Nc3ccc(F)c(Cl)c3)c2cc1OCCCN1CCOCC1 [Gefitinib] + CC(C)n1c(=O)n(C)c2cnc3cc(F)c(-c4ccc(OCCCN5CCCCC5)nc4)cc3c21 [AZD1390] (first compound max 10 µM, 7x7, partner max 0.3 µM)",combination Emax,[1],0.754
same,combination Emax,[2],0.292
same,combination Emax,[18],0.176
same,combination Emax,[3],0.169
same,combination Emax,[4],0.168
same,combination Emax,COLO-679 (Melanoma),0.0902
same,combination Emax,[5],0.488
same,combination Emax,[6],0.413
same,combination Emax,[7],0.316
same,Bliss excess,[8],-0.0818
same,Bliss excess,[9],-0.103
same,Bliss excess,[10],-0.0338
same,Bliss excess,[11],-0.0754
same,Bliss excess,EW-1 (Ewing's Sarcoma),-0.064
same,Bliss excess,[12],-0.112
same,Bliss excess,[13],-0.0725
same,Bliss excess,[14],-0.0446
same,Bliss excess,[15],-0.0791
same,Bliss excess,[16],-0.0395
same,Bliss excess,[17],-0.108
"C[C@@H](c1ccc2nccn2c1)n1nnc2ncc(-c3cnn(C)c3)nc21 [Savolitinib] + CC1(C)CCC(CN2CCN(c3ccc(C(=O)NS(=O)(=O)c4ccc(NCC5CCOCC5)c([N+](=O)[O-])c4)c(Oc4cnc5[nH]ccc5c4)c3)CC2)=C(c2ccc(Cl)cc2)C1 [Venetoclax] (first compound max 1 µM, 7x7, partner max 1 µM)",combination Emax,[1],1
same,combination Emax,[2],0.174
same,combination Emax,[18],0.295
same,combination Emax,[3],0.244
same,combination Emax,[4],0.46
same,combination Emax,COLO-679 (Melanoma),0.109
same,combination Emax,[5],0.703
same,combination Emax,[6],0.301
same,combination Emax,[7],0.128
same,Bliss excess,[8],-0.0258
same,Bliss excess,[9],-0.049
same,Bliss excess,[10],-0.008
same,Bliss excess,[11],-0.0408
same,Bliss excess,EW-1 (Ewing's Sarcoma),-0.0386
same,Bliss excess,[12],-0.0637
same,Bliss excess,[13],0.0298
same,Bliss excess,[14],-0.0528
same,Bliss excess,[15],-0.0822
same,Bliss excess,[16],-0.0127
same,Bliss excess,[17],-0.0884
"C[C@@H](c1ccc2nccn2c1)n1nnc2ncc(-c3cnn(C)c3)nc21 [Savolitinib] + Cc1c2c(nn1C)CSCc1cc(n(C)n1)CSc1cc(c3ccccc3c1)OCCCc1c(C(=O)O)n(C)c3c-2c(Cl)ccc13 [AZD5991] (first compound max 1 µM, 7x7, partner max 1 µM)",combination Emax,[1],1
same,combination Emax,[2],0.212
same,combination Emax,[18],0.257
same,combination Emax,[3],0.342
same,combination Emax,[4],1
same,combination Emax,COLO-679 (Melanoma),0.163
same,combination Emax,[5],0.291
same,combination Emax,[6],0.328
same,combination Emax,[7],0.119
same,Bliss excess,[8],-0.0291
same,Bliss excess,[9],0.0218
same,Bliss excess,[10],-0.001
same,Bliss excess,[11],-0.0163
same,Bliss excess,EW-1 (Ewing's Sarcoma),-0.0001
same,Bliss excess,[12],-0.0598
same,Bliss excess,[13],0.0789
same,Bliss excess,[14],-0.0047
same,Bliss excess,[15],-0.045
same,Bliss excess,[16],0.0066
same,Bliss excess,[17],-0.0386

# Source: the supplement of paper PMC11061612
